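All cell lines were grown in 96-well plates and treated with compound for 48 hours. At the GI50, growth is halved.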 Active and inactive are the calls of the source. Cut-off read from the data, not from the text of the source: active = GI50 up to about 1.1 µM and inactive = higher.
Columns and labels:
Test in all cases: growth of human tumour cells (NCI), 48 h
KM12 = system: KM12
786-0 = system: 786-0
SK-MEL-2 = system: SK-MEL-2
MOLT-4 = system: MOLT-4
NCI-H460 = system: NCI-H460
MDA-N = system: MDA-N
A549 = system: A549
PC-3 = system: PC-3
HOP-62 = system: HOP-62
K562 = system: K562
M14 = system: M14
MDA-MB-435 = system: MDA-MB-435
HCT-15 = system: HCT-15
DU-145 = system: DU-145
SR = system: SR
ACHN = system: ACHN
OVCAR-8 = system: OVCAR-8
BT-549 = system: BT-549
NCI/ADR-RES = system: NCI/ADR-RES
SK-MEL-28 = system: SK-MEL-28
COLO 205 = system: COLO 205
TK-10 = system: TK-10
OVCAR-5 = system: OVCAR-5
SNB-19 = system: SNB-19
MCF7 = system: MCF7
OVCAR-4 = system: OVCAR-4
CCRF-CEM = system: CCRF-CEM
RPMI-8226 = system: RPMI-8226
MDA-MB-231 = system: MDA-MB-231
CAKI-1 = system: CAKI-1
HL-60 = system: HL-60
NCI-H23 = system: NCI-H23
HCT-116 = system: HCT-116
EKVX = system: EKVX
U-251 = system: U-251
HT-29 = system: HT-29
UO-31 = system: UO-31
HCC 2998 = system: HCC 2998
SF-295 = system: SF-295
Malme-3M = system: Malme-3M
OVCAR-3 = system: OVCAR-3
SK-MEL-5 = system: SK-MEL-5
SN12C = system: SN12C
SF-268 = system: SF-268
RXF 393 = system: RXF 393
SW-620 = system: SW-620
T47D = system: T47D
UACC-62 = system: UACC-62
IGROV-1 = system: IGROV-1
SNB-75 = system: SNB-75
UACC-257 = system: UACC-257
SF-539 = system: SF-539
NCI-H522 = system: NCI-H522
A498 = system: A498
HOP-92 = system: HOP-92
NCI-H226 = system: NCI-H226

In the case of O=C(c1cccc2ccccc12)C1S(=O)(=O)OCCOS1(=O)=O, the GI50 (KM12) is reported as > 100 µM (inactive), the GI50 (786-0) is reported as > 100 µM (inactive) and the GI50 (SK-MEL-2) is reported as > 100 µM (inactive). The GI50 (MOLT-4) was > 100 µM (inactive), the GI50 (NCI-H460) was > 100 µM (inactive) and the GI50 (MDA-N) was > 100 µM (inactive). For the same compound, the GI50 (A549) was > 100 µM (inactive), the GI50 (PC-3) was > 100 µM (inactive) and the GI50 (HOP-62) was > 100 µM (inactive). For the same compound, the GI50 (K562) was > 100 µM (inactive), the GI50 (M14) was > 100 µM (inactive) and the GI50 (MDA-MB-435) was > 10 µM (inactive). The GI50 (HCT-15) was over 100 µM, the GI50 (DU-145) was > 100 µM (inactive) and the GI50 (SR) was > 100 µM (inactive). The GI50 (ACHN) was > 100 µM (inactive), the GI50 (OVCAR-8) was > 100 µM (inactive) and the GI50 (BT-549) was > 100 µM (inactive). For the same compound, the GI50 (NCI/ADR-RES) was > 100 µM (inactive), the GI50 (SK-MEL-28) was > 100 µM (inactive) and the GI50 (COLO 205) was > 100 µM (inactive). For the same compound, the GI50 (TK-10) was > 100 µM (inactive), the GI50 (OVCAR-5) was > 100 µM (inactive) and the GI50 (SNB-19) was > 100 µM (inactive). The GI50 (MCF7) was > 100 µM (inactive), the GI50 (OVCAR-4) was > 100 µM (inactive) and the GI50 (CCRF-CEM) was > 100 µM (inactive). For the same compound, the GI50 (RPMI-8226) was > 100 µM (inactive), the GI50 (MDA-MB-231) was > 100 µM (inactive) and the GI50 (CAKI-1) was > 100 µM (inactive). For the same compound, the GI50 (HL-60) was > 100 µM (inactive), the GI50 (NCI-H23) was > 100 µM (inactive) and the GI50 (HCT-116) was > 100 µM (inactive). The GI50 (EKVX) was > 100 µM (inactive), the GI50 (U-251) was > 100 µM (inactive) and the GI50 (HT-29) was > 100 µM (inactive). For the same compound, the GI50 (UO-31) was > 100 µM (inactive), the GI50 (HCC 2998) was > 100 µM (inactive) and the GI50 (SF-295) was 0.0151 µM (active). For the same compound, the GI50 (Malme-3M) was > 100 µM (inactive), the GI50 (OVCAR-3) was > 100 µM (inactive) and the GI50 (SK-MEL-5) was > 100 µM (inactive). For the same compound, the GI50 (SN12C) was > 100 µM (inactive).
In the case of O=C1OC(=O)c2c1cc1cc3c(cc1c2-c1ccc2c(c1)OCO2)OCO3, the GI50 (KM12) is reported as > 100 µM (inactive), the GI50 (786-0) is reported as 22 µM (inactive) and the GI50 (SF-268) is reported as > 100 µM (inactive). For the same compound, the GI50 (SK-MEL-2) was > 100 µM (inactive), the GI50 (MOLT-4) was > 100 µM (inactive) and the GI50 (RXF 393) was > 100 µM (inactive). For the same compound, the GI50 (NCI-H460) was > 100 µM (inactive), the GI50 (MDA-N) was > 100 µM (inactive) and the GI50 (SW-620) was > 100 µM (inactive). The GI50 (A549) was > 100 µM (inactive), the GI50 (PC-3) was > 100 µM (inactive) and the GI50 (T47D) was > 100 µM (inactive). The GI50 (K562) was > 100 µM (inactive), the GI50 (M14) was > 100 µM (inactive) and the GI50 (MDA-MB-435) was > 100 µM (inactive). The GI50 (HCT-15) was over 100 µM, the GI50 (DU-145) was > 100 µM (inactive) and the GI50 (ACHN) was > 100 µM (inactive). The GI50 (OVCAR-8) was > 100 µM (inactive), the GI50 (BT-549) was > 100 µM (inactive) and the GI50 (NCI/ADR-RES) was > 100 µM (inactive). For the same compound, the GI50 (SK-MEL-28) was > 100 µM (inactive), the GI50 (COLO 205) was > 100 µM (inactive) and the GI50 (TK-10) was > 100 µM (inactive). For the same compound, the GI50 (OVCAR-5) was > 100 µM (inactive), the GI50 (SNB-19) was > 100 µM (inactive) and the GI50 (UACC-62) was > 100 µM (inactive). The GI50 (MCF7) was > 100 µM (inactive), the GI50 (IGROV-1) was > 100 µM (inactive) and the GI50 (OVCAR-4) was > 100 µM (inactive). The GI50 (CCRF-CEM) was > 100 µM (inactive), the GI50 (RPMI-8226) was > 100 µM (inactive) and the GI50 (SNB-75) was > 100 µM (inactive). The GI50 (MDA-MB-231) was > 100 µM (inactive), the GI50 (CAKI-1) was > 100 µM (inactive) and the GI50 (HL-60) was > 100 µM (inactive). For the same compound, the GI50 (NCI-H23) was > 100 µM (inactive), the GI50 (HCT-116) was > 100 µM (inactive) and the GI50 (UACC-257) was > 100 µM (inactive). The GI50 (U-251) was > 100 µM (inactive), the GI50 (HT-29) was > 100 µM (inactive) and the GI50 (UO-31) was > 100 µM (inactive). For the same compound, the GI50 (HCC 2998) was > 100 µM (inactive), the GI50 (SF-539) was > 100 µM (inactive) and the GI50 (NCI-H522) was > 100 µM (inactive). The GI50 (A498) was > 100 µM (inactive), the GI50 (SF-295) was > 100 µM (inactive) and the GI50 (Malme-3M) was > 100 µM (inactive). For the same compound, the GI50 (OVCAR-3) was > 100 µM (inactive), the GI50 (HOP-92) was > 100 µM (inactive) and the GI50 (NCI-H226) was > 100 µM (inactive). The GI50 (SK-MEL-5) was > 100 µM (inactive) and the GI50 (SN12C) was > 100 µM (inactive).
O=P(O)(O)OC1C(OP(=O)(O)O)C(OP(=O)(O)O)C(OP(=O)(O)O)C(OP(=O)(O)O)C1OP(=O)(O)O (configuration not stated) [PHYTATE] was tested, and the GI50 (EKVX) was > 500 µM (inactive).

— ChEMBL document CHEMBL1201862, “PubChem BioAssay data set” (2004)
